According to publication PMC9297976 (Journal of Applied Toxicology, 2021):

Assays:
[1] = tested on: Japanese medaka (Oryzias latipes); test: Fish Short‐Term Reproduction Assay; assay type: in vivo; conditions: for GSI Female / GSI Male / HSI Female / HSI Male / Length Female / Length Male / Weight Female / Weight Male: completion of exposure
[2] = biological target: T1, medaka Esr1 (mEsr1) (Oryzias latipes, UniProt P50241); test: cell-based; parameters: species or system Japanese medaka (Oryzias latipes)
T1 sequence (P50241 1-620): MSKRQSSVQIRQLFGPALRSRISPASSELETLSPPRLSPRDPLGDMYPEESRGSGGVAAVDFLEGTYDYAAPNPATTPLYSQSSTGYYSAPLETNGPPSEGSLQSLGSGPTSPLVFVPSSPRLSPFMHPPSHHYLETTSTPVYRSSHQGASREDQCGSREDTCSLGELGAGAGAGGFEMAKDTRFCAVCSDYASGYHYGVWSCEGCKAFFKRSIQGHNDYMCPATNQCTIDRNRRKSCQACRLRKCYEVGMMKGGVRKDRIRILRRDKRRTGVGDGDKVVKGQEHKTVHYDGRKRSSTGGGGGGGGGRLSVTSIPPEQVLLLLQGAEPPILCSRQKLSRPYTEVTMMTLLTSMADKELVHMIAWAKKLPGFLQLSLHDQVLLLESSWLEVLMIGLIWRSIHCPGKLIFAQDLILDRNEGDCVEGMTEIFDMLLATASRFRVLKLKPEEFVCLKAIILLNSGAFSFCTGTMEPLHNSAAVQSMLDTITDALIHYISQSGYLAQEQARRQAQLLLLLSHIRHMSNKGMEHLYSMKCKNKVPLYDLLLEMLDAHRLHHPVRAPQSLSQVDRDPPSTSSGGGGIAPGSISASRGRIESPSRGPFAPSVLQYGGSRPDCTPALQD

[3] = biological target: T2, medaka ARβ (mArβ) (Oryzias latipes, UniProt D1MV73); test: Medaka ARβ reporter gene assay, antagonist assay; assay type: cell-based, Japanese medaka (Oryzias latipes); conditions: 11‐KT spiked at 50 nM (D); MAC = 1.0 × 10^−5 M
T2 sequence (D1MV73 1-744): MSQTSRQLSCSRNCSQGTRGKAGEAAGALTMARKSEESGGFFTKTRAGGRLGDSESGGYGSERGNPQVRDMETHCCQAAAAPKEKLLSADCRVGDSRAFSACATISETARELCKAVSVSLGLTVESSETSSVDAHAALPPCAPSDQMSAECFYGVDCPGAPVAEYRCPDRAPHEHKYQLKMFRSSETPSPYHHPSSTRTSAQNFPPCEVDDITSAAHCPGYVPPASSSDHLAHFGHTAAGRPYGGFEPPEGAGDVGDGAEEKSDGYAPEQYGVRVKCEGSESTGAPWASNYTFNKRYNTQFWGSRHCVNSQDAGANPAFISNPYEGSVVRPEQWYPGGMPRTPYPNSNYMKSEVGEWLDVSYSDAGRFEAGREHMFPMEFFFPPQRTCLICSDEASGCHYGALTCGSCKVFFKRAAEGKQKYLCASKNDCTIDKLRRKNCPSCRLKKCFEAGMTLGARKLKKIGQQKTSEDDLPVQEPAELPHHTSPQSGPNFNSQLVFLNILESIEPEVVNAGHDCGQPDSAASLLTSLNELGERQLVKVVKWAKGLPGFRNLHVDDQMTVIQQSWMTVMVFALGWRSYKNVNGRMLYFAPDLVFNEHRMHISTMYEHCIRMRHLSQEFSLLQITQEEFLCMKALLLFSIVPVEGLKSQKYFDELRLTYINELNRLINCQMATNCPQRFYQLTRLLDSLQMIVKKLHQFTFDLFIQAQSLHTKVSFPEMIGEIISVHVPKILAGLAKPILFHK

[4] = ref Brooke et al., 2009; Saeger et al., 1979; cited from earlier work
[5] = biological target: T1, medaka Esr1 (mEsr1); test: Medaka Esr1 reporter gene assay, antagonist assay; assay type: cell-based, Japanese medaka (Oryzias latipes); conditions: E2 spiked at 1.0 nM (B); MAC = 1.0 × 10^−5 M
[6] = biological target: T2, medaka ARβ (mArβ); test: Medaka ARβ reporter gene assay, agonist assay; assay type: cell-based, Japanese medaka (Oryzias latipes); conditions: MAC = 1.0 × 10^−5 M
[7] = 44.9 μg/L measured, 21 d, sig. ↓ vs control
[8] = measured concentration 2.13 μg/L
[9] = measured concentration 7.19 μg/L
[10] = measured concentration 17.1 μg/L
[11] = measured concentration 44.9 μg/L

O=P(Oc1ccccc1)(Oc1ccccc1)Oc1ccccc1 [TPP, Triphenyl phosphate]
Fertility rate ([1]; 2.13 μg/L measured, 21 d): 89 ± 4.9%
Hepatic VTG, female ([1]; 2.13 μg/L measured, 21 d): 542 ± 115 ng/mg‐liver
Hepatic VTG, male ([1]; 2.13 μg/L measured, 21 d): 6.9 ± 4.0 ng/mg‐liver
Mortality ([1]; 2.13 μg/L measured, 21 d): 0.0%
Mortality, number of dead fish ([1]; 2.13 μg/L measured, 21 d): 0
Number of fertilized eggs (per female per day) ([1]; 2.13 μg/L measured, 21 d): 18 ± 3.1
Number of total eggs (per female per day) ([1]; 2.13 μg/L measured, 21 d): 20 ± 2.7
SSC female (joint plates with papillary processes) ([1]; 2.13 μg/L measured, 21 d): 0 ± 0
SSC male (joint plates with papillary processes) ([1]; 2.13 μg/L measured, 21 d): 83 ± 7.4
Fertility rate ([1]; 7.19 μg/L measured, 21 d): 91 ± 3.8%
Hepatic VTG, male ([1]; 7.19 μg/L measured, 21 d): 8.4 ± 9.0 ng/mg‐liver
Mortality ([1]; 7.19 μg/L measured, 21 d): 0.0%
Mortality, number of dead fish ([1]; 7.19 μg/L measured, 21 d): 0
Number of fertilized eggs (per female per day) ([1]; 7.19 μg/L measured, 21 d): 17 ± 3.4
Number of total eggs (per female per day) ([1]; 7.19 μg/L measured, 21 d): 19 ± 3.1
SSC female (joint plates with papillary processes) ([1]; 7.19 μg/L measured, 21 d): 0 ± 0
SSC male (joint plates with papillary processes) ([1]; 7.19 μg/L measured, 21 d): 84 ± 6.9
Hepatic VTG, female ([1]; 7.19 μg/L measured, 21 d, sig. ↓ vs control): 360 ± 60 ng/mg‐liver
Fertility rate ([1]; 17.1 μg/L measured, 21 d): 93 ± 2.2%
Hepatic VTG, male ([1]; 17.1 μg/L measured, 21 d): 11 ± 9.4 ng/mg‐liver
Mortality ([1]; 17.1 μg/L measured, 21 d): 0.0%
Mortality, number of dead fish ([1]; 17.1 μg/L measured, 21 d): 0
Number of fertilized eggs (per female per day) ([1]; 17.1 μg/L measured, 21 d): 19 ± 1.8
Number of total eggs (per female per day) ([1]; 17.1 μg/L measured, 21 d): 20 ± 2.0
SSC female (joint plates with papillary processes) ([1]; 17.1 μg/L measured, 21 d): 0 ± 0
SSC male (joint plates with papillary processes) ([1]; 17.1 μg/L measured, 21 d): 83 ± 7.2
Hepatic VTG, female ([1]; 17.1 μg/L measured, 21 d, sig. ↓ vs control): 420 ± 77 ng/mg‐liver
Fertility rate ([1]; 44.9 μg/L measured, 21 d): 91 ± 3.9%
Hepatic VTG, male ([1]; 44.9 μg/L measured, 21 d): 8.8 ± 8.1 ng/mg‐liver
Mortality ([1]; 44.9 μg/L measured, 21 d): 4.2%
Mortality, number of dead fish ([1]; 44.9 μg/L measured, 21 d): 1
SSC female (joint plates with papillary processes) ([1]; 44.9 μg/L measured, 21 d): 0 ± 0
SSC male (joint plates with papillary processes) ([1]; 44.9 μg/L measured, 21 d): 90 ± 8.0
Hepatic VTG, female [1, 7]: 417 ± 70 ng/mg‐liver
Number of fertilized eggs (per female per day) [1, 7]: 15 ± 3.5
Number of total eggs (per female per day) [1, 7]: 16 ± 3.2
Fecundity, number of total eggs (in words) ([1]; 21 d): statistically significant decrease
LOECmVTG ([1]; LOEC on VTG induction in males): ND (>44.9) μg/L
LOECREPRO ([1]; LOEC on reproduction (fecundity and/or fertility)): 44.9 µg/L
Fertility rate (in words) ([1]; chemicals with significant decrease of number of total eggs): no significant effect
LOECREPRO (reduction in fecundity or fertility) ([1]; concentrations without overt toxicity): 44.9 µg/L
LOECTOX ([1]; lowest observed effect concentration on mortality): ND (>44.9) μg/L
GSI Female [1, 8]: 7.9 ± 0.5%
GSI Male [1, 8]: 0.87 ± 0.17%
HSI Female [1, 8]: 3.5 ± 0.39%
HSI Male [1, 8]: 1.4 ± 0.12%
Length Female [1, 8]: 35.3 ± 0.7 mm
Length Male [1, 8]: 37.9 ± 1.1 mm
Weight Female [1, 8]: 449 ± 19 mg
Weight Male [1, 8]: 532 ± 44 mg
GSI Female [1, 9]: 8.1 ± 0.6%
GSI Male [1, 9]: 0.95 ± 0.09%
HSI Female [1, 9]: 3.1 ± 0.21%
HSI Male [1, 9]: 1.7 ± 0.29%
Length Female [1, 9]: 35.5 ± 0.3 mm
Length Male [1, 9]: 38.0 ± 1.1 mm
Weight Female [1, 9]: 464 ± 27 mg
Weight Male [1, 9]: 544 ± 49 mg
GSI Female [1, 10]: 7.7 ± 0.7%
GSI Male [1, 10]: 0.94 ± 0.10%
HSI Female [1, 10]: 3.6 ± 0.46%
HSI Male [1, 10]: 1.7 ± 0.24%
Length Female [1, 10]: 35.2 ± 1.0 mm
Length Male [1, 10]: 37.7 ± 1.0 mm
Weight Female [1, 10]: 468 ± 34 mg
Weight Male [1, 10]: 539 ± 31 mg
GSI Female [1, 11]: 9.4 ± 1.3%
GSI Male [1, 11]: 0.80 ± 0.07%
HSI Female [1, 11]: 3.6 ± 0.60%
HSI Male [1, 11]: 1.7 ± 0.13%
Length Female [1, 11]: 34.4 ± 0.4 mm
Length Male [1, 11]: 38.3 ± 1.1 mm
Weight Female [1, 11]: 432 ± 32 mg
Weight Male [1, 11]: 583 ± 68 mg
EC50 [2]: 9.7 µM
In vitro positive: Esr ([2]; mode of action in which EC50 or PC10 was obtained in RGA): Esr
Antagonistic activity [3]: NE (MAC = 1.0 × 10^−5 M)^(D)
Water solubility [4]: 1 to 1.9 µg/mL
Antagonistic activity [5]: NE (MAC = 1.0 × 10^−5 M)^(B)
Agonistic activity [6]: NE (MAC = 1.0 × 10^−5 M)
